Source: ChEMBL document CHEMBL5537208 (J Med Chem, 2024)
≈ marks a conversion by molar mass, not a printed value.

How the values were obtained:
[1] = target: T1, Orexin/Hypocretin receptor type 1 (Homo sapiens, UniProt O43613)
T1 sequence (O43613 whole entry): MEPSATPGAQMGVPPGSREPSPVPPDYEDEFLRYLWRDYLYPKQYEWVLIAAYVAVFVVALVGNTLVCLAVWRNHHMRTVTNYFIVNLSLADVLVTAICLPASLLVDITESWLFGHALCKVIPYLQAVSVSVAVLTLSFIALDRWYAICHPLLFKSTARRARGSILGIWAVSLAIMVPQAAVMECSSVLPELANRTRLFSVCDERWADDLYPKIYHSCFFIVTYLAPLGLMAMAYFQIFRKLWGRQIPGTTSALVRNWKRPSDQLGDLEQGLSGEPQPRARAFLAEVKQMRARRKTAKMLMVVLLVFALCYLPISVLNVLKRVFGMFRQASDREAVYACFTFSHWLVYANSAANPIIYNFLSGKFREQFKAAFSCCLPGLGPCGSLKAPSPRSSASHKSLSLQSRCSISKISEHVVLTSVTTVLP
Description: Antagonist activity at human OX1R expressed in CHO cells preincubated for 120 mins followed by orexin-A addition by FLIPR assay

[2] = target: T2, Orexin receptor type 2 (Homo sapiens, UniProt O43614)
T2 sequence (O43614 whole entry): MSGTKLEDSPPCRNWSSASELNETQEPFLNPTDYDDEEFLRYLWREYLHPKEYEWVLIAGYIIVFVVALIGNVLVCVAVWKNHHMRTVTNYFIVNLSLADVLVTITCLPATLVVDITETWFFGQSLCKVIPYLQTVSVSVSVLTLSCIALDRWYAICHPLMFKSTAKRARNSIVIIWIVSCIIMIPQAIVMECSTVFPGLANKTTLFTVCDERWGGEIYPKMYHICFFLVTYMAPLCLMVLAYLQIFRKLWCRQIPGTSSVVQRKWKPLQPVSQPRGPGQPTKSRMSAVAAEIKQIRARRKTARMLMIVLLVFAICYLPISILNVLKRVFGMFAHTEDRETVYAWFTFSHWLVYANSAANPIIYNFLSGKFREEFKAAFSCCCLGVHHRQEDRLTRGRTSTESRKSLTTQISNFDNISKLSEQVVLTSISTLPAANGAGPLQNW
Description: Antagonist activity at human OX2R expressed in CHO cells preincubated for 120 mins followed by orexin-A addition by FLIPR assay

[3] = in vitro; conditions: human, liver microsomes
[4] = Apparent permeability across apical to basal side in MDCKI-MDR1 cells; type: ADME, cell-based, Canis lupus familiaris; conditions: dog, MDCK-MDR1
[5] = Apparent permeability across basal to apical side in MDCKI-MDR1 cells; type: ADME, cell-based, Canis lupus familiaris; conditions: dog, MDCK-MDR1
[6] = in vitro; conditions: rat, liver microsomes
[7] = in vitro; conditions: dog, MDCK-MDR1
Description: Efflux ratio in MDCKI-MDR1 cells

[8] = Unbound drug concentration in Wistar rat plasma at 1 mg/kg, po measured after 1 hr by LC-tandem MS analysis; type: ADME, organism-based; conditions: in vivo
[9] = Unbound drug concentration in Wistar rat brain at 1 mg/kg, po measured after 1 hr by LC-tandem MS analysis; type: ADME, organism-based; conditions: in vivo
[10] = Drug concentration in cerebrospinal fluid of Wistar rat at 1 mg/kg, po measured after 1 hr by LC-tandem MS analysis; type: ADME, organism-based; conditions: read-out: Ct
[11] = Ratio of unbound drug concentration in Wistar rat brain to plasma at 1 mg/kg, po measured after 1 hr by LC-tandem MS analysis; type: ADME, organism-based; conditions: read-out: K(p,uu,brain)
[12] = Solubility of compound in FeSSIF; type: ADME
[13] = target: T3, Orexin/Hypocretin receptor type 1 (Rattus norvegicus) (UniProt P56718); conditions: Wistar, dose 1.0 mg/kg, route po, time 1.0 hrs
T3 sequence (whole entry): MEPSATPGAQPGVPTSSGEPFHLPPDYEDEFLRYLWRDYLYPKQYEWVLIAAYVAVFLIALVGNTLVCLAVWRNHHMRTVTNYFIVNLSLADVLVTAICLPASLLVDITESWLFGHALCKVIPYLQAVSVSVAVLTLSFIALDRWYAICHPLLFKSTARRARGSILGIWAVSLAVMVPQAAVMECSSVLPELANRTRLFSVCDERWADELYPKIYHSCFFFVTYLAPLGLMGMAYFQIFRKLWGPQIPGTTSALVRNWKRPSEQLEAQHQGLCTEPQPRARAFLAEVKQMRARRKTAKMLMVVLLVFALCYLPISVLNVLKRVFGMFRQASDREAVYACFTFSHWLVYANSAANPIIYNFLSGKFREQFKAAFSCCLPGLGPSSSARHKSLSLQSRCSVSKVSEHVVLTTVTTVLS

Compound	IC50 [1] [nM]	IC50 [2] [nM]	microsomal CLint at 1 µM [3] [µL/min/mg]	other results
Cc1cccc(-n2nccn2)c1C(=O)N1CCOC[C@H]1Cc1cccc(-n2nccn2)c1	109			
Cc1ccc(C(=O)N2CCOC[C@H]2Cc2ccc(C)c(-n3nccn3)c2)c(-n2nccn2)c1	1.4	184	391	
O=C(c1c(F)cccc1-n1nccn1)N1CCOC[C@H]1Cc1cccc(-n2nccn2)c1		1550		
COc1ccc(C(=O)N2CCOC[C@H]2Cc2cccc(-n3nccn3)c2)c(-n2nccn2)c1	6.2	1430	157	Papp A→B [4]: 8.7 ×10⁻⁶ cm/s; Papp B→A [5]: 62.4 ×10⁻⁶ cm/s; microsomal CLint at 1 µM [6]: > 1250 µL/min/mg; efflux ratio [7]: 7.2
Cc1ccc(C(=O)N2CCO[C@@H](C)[C@H]2Cc2cccc(-n3nccn3)c2)c(-n2nccn2)c1			327	
Cc1ccc(C(=O)N2[C@H](Cc3cccc(-n4nccn4)c3)COC[C@@H]2C)c(-n2nccn2)c1	34	1830	239	
Cc1cccc(-c2ncncc2C(=O)N2CCC[C@H]2Cc2cccc(-n3nccn3)c2)c1	9.5			
O=C(c1ccccc1-n1nccn1)N1CCC[C@H]1Cc1cccc(-n2nccn2)c1	5.9			
Cc1cccc(-c2sc(C)nc2C(=O)N2CCC[C@H]2Cc2cccc(-n3cccn3)c2)c1		20		
Cc1nc(C(=O)N2CCC[C@H]2Cc2cccc(-n3nccn3)c2)c(-c2ccc3c(c2)OCO3)s1	3.6	12		
Cc1ccc(C(=O)N2CCOC[C@H]2Cc2cc(-n3nccn3)ccc2C)c(-n2nccn2)c1	4.1	1110	208	
Cc1ccc(-n2nccn2)c(C(=O)N2CCCC[C@H]2Cc2cccc(-n3nccn3)c2)c1		1.7	634	microsomal CLint at 1 µM [6]: > 1250 µL/min/mg
Cc1ccc(C(=O)N2CCOC[C@H]2Cc2cc(-n3nccn3)ccc2Cl)c(-n2nccn2)c1	3.1	595	158	
Cc1ccc(C(=O)N2[C@H](Cc3cccc(-n4nccn4)c3)COC[C@H]2C)c(-n2nccn2)c1	1		623	
COc1ccc(-n2nccn2)c(C(=O)N2CCOC[C@H]2Cc2cccc(-n3nccn3)c2)c1	3	784	121	Papp A→B [4]: 6.1 ×10⁻⁶ cm/s; Papp B→A [5]: 60.6 ×10⁻⁶ cm/s; microsomal CLint at 1 µM [6]: > 1250 µL/min/mg; efflux ratio [7]: 10
Cc1ccc(C(=O)N2C[C@H](C)OC[C@H]2Cc2cccc(-n3nccn3)c2)c(-n2nccn2)c1	11	265	322	

Compound	IC50 [1] [nM]	IC50 [2] [nM]	microsomal CLint at 1 µM [3] [µL/min/mg]	other results
O=C(c1cccc(F)c1-n1nccn1)N1CCOC[C@H]1Cc1cccc(-n2nccn2)c1			104	
Cc1ccc(C(=O)N2C[C@@H](C)OC[C@H]2Cc2cccc(-n3nccn3)c2)c(-n2nccn2)c1	4	215	139	
Cc1ccc(-n2nccn2)c(C(=O)N2CCOC[C@H]2Cc2cccc(-n3nccn3)c2)c1	1.7	214	119	Papp A→B [4]: 15.3 ×10⁻⁶ cm/s; Papp B→A [5]: 55.9 ×10⁻⁶ cm/s; Cp(f) [8]: 36 nM; Drug uptake(free) [9]: 19 nM; concentration at 1 h [10]: 51 nM; Kp uu at 1 h [11]: 0.53; solubility [12]: 46 µg/mL (≈ 107 µM); Occ [13]: > 91%; microsomal CLint at 1 µM [6]: > 1250 µL/min/mg
Cc1ccc(C(=O)N2CCOC[C@H]2Cc2cccc(-n3nccn3)c2F)c(-n2nccn2)c1	21	2020	170	
O=C(c1ccccc1-c1ncccn1)N1CCC[C@H]1Cc1cccc(-n2nccn2)c1	4.4			
Cc1ccc(C(=O)N2CCOC[C@H]2Cc2cc(Cl)cc(-n3nccn3)c2)c(-n2nccn2)c1	1.9		89	
Cc1cccc(C(=O)N2CCOC[C@H]2Cc2cccc(-n3nccn3)c2)c1-n1nccn1	5.5		204	Papp A→B [4]: 16.1 ×10⁻⁶ cm/s; Papp B→A [5]: 66 ×10⁻⁶ cm/s; Cp(f) [8]: 278 nM; Drug uptake(free) [9]: 260 nM; concentration at 1 h [10]: 1000 nM; Kp uu at 1 h [11]: 0.94; solubility [12]: 337 µg/mL (≈ 785 µM); microsomal CLint at 1 µM [6]: > 1250 µL/min/mg
Cc1ccc(-n2nccn2)c(C(=O)N2CCC[C@H]2Cc2cccc(-n3nccn3)c2)c1	0.7	7	> 1250	microsomal CLint at 1 µM [6]: > 1250 µL/min/mg
Cc1ccc(C(=O)N2CCO[C@H](C)[C@H]2Cc2cccc(-n3nccn3)c2)c(-n2nccn2)c1			301	
Cc1nc(C(=O)N2CCC[C@H]2Cc2cccc(-n3nccn3)c2)c(-c2ccc(F)cc2)s1	17	100		
O=C(c1ccc(F)cc1-n1nccn1)N1CCOC[C@H]1Cc1cccc(-n2nccn2)c1	37	1040	101	
O=C(c1ccccc1-n1nccn1)N1CCOC[C@H]1Cc1cccc(-n2nccn2)c1			59	
Cc1ccc(C(=O)N2CCOC[C@H]2Cc2cccc(-n3nccn3)c2)c(-n2nccn2)c1C	2.8	2430	292	Papp A→B [4]: 11.8 ×10⁻⁶ cm/s; Papp B→A [5]: 59.4 ×10⁻⁶ cm/s; Cp(f) [8]: 72 nM; Drug uptake(free) [9]: 147 nM; concentration at 1 h [10]: 370 nM; Kp uu at 1 h [11]: 2.04; solubility [12]: 293 µg/mL (≈ 661 µM); Occ [13]: > 98%; microsomal CLint at 1 µM [6]: > 1250 µL/min/mg; efflux ratio [7]: 5
Cc1cccc(-c2sc(C)nc2C(=O)N2CCC[C@H]2Cc2cccc(-c3ncon3)c2)c1		4.4		
O=C(c1cc(F)ccc1-n1nccn1)N1CCOC[C@H]1Cc1cccc(-n2nccn2)c1			227	
Cc1ccc(C(=O)N2CCOC[C@H]2Cc2cc(F)cc(-n3nccn3)c2)c(-n2nccn2)c1	3.5		164	
